Measured values from patent US9592223B2, “Small molecule inhibitors of MALT1” (Cornell University, priority 2012, dated 2017).

Tests used:
[1] = biological target: T1, LZ-MALT1 (MALT1 (340-789) fused with a leucine zipper dimerization motif) (Homo sapiens, UniProt Q9UDY8); assay: LZ-MALT1 fluorescence assay (Ac-LRSR-AMC cleavage), screening and concentration response; format: biochemical
T1 construct: His tag (N); made in house; host or cells: E. coli
Excerpt: We reasoned that MALT1 small-molecule inhibitors might be useful chemical tools for studying MALT1 biology and treating MALT1 addicted tumors. However, full-length MALT1 and its paracaspase domain (amino acids 340-789) are naturally present in physiological solutions as a monomer, which has very low proteolytic activity. Caspases generally must homodimerize for maximal catalytic activity (Pop et al., 2006; Walker et al., 1994; Yin et al., 2006) and accordingly the recently reported structures of the paracaspase domain of MALT1 in complex with a peptide inhibitor are dimeric (Wiesmann et al., 2012; Yu et al., 2011). […]
Ac-LRSR-AMC was used as substrate and reactions were measured with excitation/emission wavelengths of 360/465 nm. […] The final percent inhibition was calculated with the formula: {[fluorescencetest compound(T2-T1)−fluorescenceneg ctrl(T2−T1)]/[fluorescencepos ctrl(T2−T1)−fluorescenceneg ctrl(T2−T1)]}×100. […]
The screening consisted of a 20 μl reaction in 384-well black plates (Greiner Bio One, Wemmel, Belgium, catalogue #784076) with 100 nM LZ-MALT1, 200 μM Ac-LRSR-AMC, and 12.5 μM test compound in buffer A (20 mM HEPES pH 7.5, 10 mM KCl, 1.5 mM MgCl2, 1 mM EDTA, 1 mM DTT, 0.01% Triton X-100). The reactions were measured with excitation/emission wavelengths of 360/465 nm using Envision Multilabel Reader (Perkin-Elmer, Waltham, Mass.). […]

[2] = biological target: T2, LZ-MALT1 (Homo sapiens, UniProt Q9UDY8); assay: Dose-effect and time-course of MALT1 inhibition (pre-incubation, then Ac-LRSR-AMC); format: biochemical; details: pre-incubation 5 to 80 minutes
T2 construct: His tag (N); made in house; host or cells: E. coli
T2 sequence (Q9UDY8 with tags, fused parts or gaps limits assumed): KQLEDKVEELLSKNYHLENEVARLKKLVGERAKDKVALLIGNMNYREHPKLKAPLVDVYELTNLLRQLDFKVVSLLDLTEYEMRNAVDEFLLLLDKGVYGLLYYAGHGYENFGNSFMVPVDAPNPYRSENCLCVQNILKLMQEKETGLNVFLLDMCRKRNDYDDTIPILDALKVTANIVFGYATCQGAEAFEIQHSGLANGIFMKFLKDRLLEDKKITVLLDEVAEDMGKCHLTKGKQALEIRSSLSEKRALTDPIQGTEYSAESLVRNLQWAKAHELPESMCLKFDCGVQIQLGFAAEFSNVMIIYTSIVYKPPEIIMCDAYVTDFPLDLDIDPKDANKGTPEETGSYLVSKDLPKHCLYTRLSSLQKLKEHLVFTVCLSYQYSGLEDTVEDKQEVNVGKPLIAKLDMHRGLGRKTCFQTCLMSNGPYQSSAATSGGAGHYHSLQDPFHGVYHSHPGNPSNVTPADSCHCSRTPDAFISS
Experimental: The reactions were monitored in a SpectraMax M5 plate reader (Molecular Devices, Sunnyvale, Calif. USA) with excitation/emission wavelength at 360/465 nm and 20 seconds intervals. Normalized percentage of inhibition was calculated with the following formula: (M(T2-T1)−N(T2-T1))/(P(T2-T1)−N(T2-T1))*100, where M(T2-T1) is the difference signal of compound at time point 200s and 0s, N(T2-T1) is the difference signal of negative control buffer only, P(T2-T1) is the difference signal of positive control Z-VRPR-FMK.

[3] = tested on: MALT1^WT NF-κB activation; assay: NF-κB reporter assay in 293T cells, PMA/ionomycin, BCL10 and MALT1 WT; format: cell-based; details: pre-treatment
Excerpt: Antigen receptor-mediated NF-κB signaling partly depends on MALT1 activity (Ruefli-Brasse et al., 2003; Ruland et al., 2003). […] First, 293T cells were transfected with the NF-κB reporter vector (NF-κB)5-luc2CP-pGL4 (harboring 5 copies of the NF-κB consensus response element and a destabilized Firefly luciferase) and TK-pRL control together with plasmids expressing BCL10 and either MALT1^WT or MALT1^C464A. […] HBL-1 was transfected with the reporter construct (NF-κB)5-luc2CP-pGL4 and TK-pRL control.
Reporter assays were performed in 293T cells seeded at a density of 2×10^5 cells per well of a 12-well dish. 100 ng of (NF-κB)5-Luc2CP-pGL4 and 10 ng of TK-Renilla internal control plasmid were cotransfected along with 25 ng of the indicated plasmids (MIGR1-MALT1^WT or MIGR1-MALT1^C464A and pcDNA4-Flag-Bcl10) using Lipofectamine 2000 (Invitrogen). Lysates were submitted to dual luciferase assays following manufacturer's protocol (Promega). In HBL-1, 5 μg of (NF-κB)5-Luc2CP-pGL4 and 50 ng of TK-Renilla internal control plasmid per 5×10^6 cells were cotransfected using nucleofection (Amaxa, Lonza, Basel, Switzerland). Forty-eight hours after transfection, cells were plated at a density of 5×10^4 cells per well of a 24-well plate and treated as indicated. Lysates were submitted to dual luciferase assays following manufacturer's protocol (Promega).

[4] = tested on: c-REL; assay: c-REL flow cytometry of whole cells or isolated nuclei, HBL-1 cells; format: cell-based, human; details: 200 nM MI-2 or 50 μM Z-VRPR-FMK, 24 hr
Experimental: MALT1 mediates c-REL translocation to the nucleus following BCR stimulation (Ferch et al., 2007). […] This selectivity towards c-REL had also been previously shown in MALT1 knockout mice and after MALT1 cleavage inhibition by the MALT1 blocking peptide Z-VRPR-FMK (Ferch et al., 2009; Ferch et al., 2007; Hailfinger et al., 2011).
[…] was studied by flow cytometry. Cells were treated as indicated and total cells or isolated nuclei were prepared and stained for c-REL. Total cells were fixed and permeabilized using the Intrastain kit from Dako (Glostrup, Denmark). For nuclei extraction, cells were resuspended in cold nuclei extraction buffer (320 mM sucrose, 5 mM MgCl2, 10 mM HEPES, 1% Triton X-100 at pH 7.4), incubated for 10 min on ice and washed twice with nuclei wash buffer (320 mM sucrose, 5 mM MgCl2, 10 mM HEPES at pH 7.4, no Triton X-100). Nuclei yield and integrity were confirmed by microscopic examination with trypan blue staining. For labeling, nuclei wash buffer was supplemented with 1% BSA, 0.1% sodium azide and 1:100 c-REL antibody (Cell Signaling). Cells were washed then incubated with Alexa Fluor-488 conjugated secondary antibodies from Invitrogen. Cells were washed again and stained with DAPI followed by flow cytometry.

[5] = tested on: MALT1 dependent ABC-DLBCL cells HBL-1, TMD8, OCI-Ly3 and OCI-Ly10; assay: Growth inhibition, MALT1 dependent cell lines; format: cell-based, human; details: 50 μM, 48 hr
Experimental: (§1) Endogenous MALT1 activity was evaluated by Western blotting for A20, BCL10 and CYLD; and NF-κB activation, by phospho-IκB-α and total IκB-α. Dependence on MALT1 proteolytic activity for proliferation was tested by 50[…]μM Z-VRPR-FMK treatment for 48 hr. […] The U2932 and HLY1 ABC-DLBCL cell lines harbor mutations in TAK1 and A20, which activate NF-κB signaling downstream of MALT1.
(§2) Cell proliferation was determined by ATP quantification using a luminescent method (CellTiter-Glo, Promega, Madison, Wis.) and Trypan blue dye-exclusion (Sigma, St. Louis, Mo.). Cell viability in drug-treated cells was normalized to their respective controls (fractional viability) and results are given as 1-fractional viability. […]
(§3) DLBCL cell lines were grown in exponential growth conditions during the 48 hr of treatment. Cell proliferation was determined by ATP quantification using a luminescent method (CellTiter-Glo, Promega, Madison, Wis.) and Trypan blue dye-exclusion (Sigma, St. Louis, Mo.). Luminescence was measured using the Synergy4 microplate reader (BioTek Instruments, Winooski, Vt.). Standard curves for each cell line were calculated by plotting the cell number (determined by the Trypan blue method) against their luminescence values and number of cells was calculated accordingly. […]

[6] = tested on: ABC-DLBCL MALT1 independent cell lines U2932 and HLY-1; assay: Growth inhibition, MALT1 independent ABC-DLBCL cell lines; format: cell-based, human; details: 50 μM, 48 hr
Experimental: as §1, §2, §3

[7] = tested on: GCB-DLBCL cell lines OCI-Ly7 and OCI-Ly1; assay: Growth inhibition, GCB-DLBCL cell lines; format: cell-based, human; details: 50 μM, 48 hr
Experimental: as §1, §2, §3

T1 sequence (Q9UDY8 with tags, fused parts or gaps limits assumed): as above

biochemical IC50 (in words) [1] | kind of inhibition (time dependence) [2] | percent MALT1 inhibition reached [2] | Compound | NF-κB induction by PMA/ionomycin stimulation [3] | nuclear c-REL ([4]; isolated nuclei) | whole cell c-REL ([4]; whole cells) | response of proliferation [5] | response of proliferation [6] | response of proliferation [7]
lower IC50 | reversible inhibition | ~50% | COCCOc1nc(-c2cccc(OC)c2)n(-c2ccc(NC(=O)c3cccc([N+](=O)[O-])c3)cc2)n1 [MI-2A2] |  |  |  |  |  | 
 |  |  | Z-VRPR-FMK [reference compound] | significantly inhibited NF-κB induction | reduced nuclear c-REL | without affecting whole cell levels | inhibition of proliferation | relatively little response | did not respond
